Cc1ccc(Nc2nccc(N(C)c3ccc4c(C)n(C)nc4c3)n2)cc1S(N)(=O)=O
solubility (mole fraction)
Conditions | 288.15 K | 293.15 K | 298.15 K | 303.15 K | 308.15 K | 313.15 K | 318.15 K | 323.15 K | 328.15 K
in ethanol | 7.97e-06 | 1.01e-05 | 1.27e-05 | 1.61e-05 | 1.96e-05 | 2.36e-05 | 2.85e-05 | 3.41e-05 | 4.04e-05
in ethyl acetate | 6.17e-06 | 8.06e-06 | 1.04e-05 | 1.31e-05 | 1.63e-05 | 2e-05 | 2.48e-05 | 3.06e-05 | 3.7e-05
in isopropanol | 9.43e-06 | 1.19e-05 | 1.49e-05 | 1.86e-05 | 2.25e-05 | 2.71e-05 | 3.25e-05 | 3.9e-05 | 4.69e-05

Source: BigSolDB 2.1
